In article PMC11172786, “Melatonin-Regulated Chaperone Binding Protein Plays a Key Role in Cadmium Stress Tolerance in Rice, Revealed by the Functional Characterization of a Novel Serotonin N-Acetyltransferase 3 (SNAT3) in Rice” (International Journal of Molecular Sciences, 2024):

Legend:
OsSNAT3 (OsSNAT3-His6) = target: T1, OsSNAT3 (OsSNAT3-His6) (Oryza sativa, UniProt B7F8K4); test: inhibition of serotonin N-acetylation, HPLC; format: biochemical; conditions: 0.5 mM serotonin and 0.5 mM amine, pH 8.8, 55 °C; possible alternative substrate; tag form not stated for this figure
T1 construct: cDNA-derived N-terminus MGAGEG, C-terminus QAATKK
T1 sequence (B7F8K4 1-179): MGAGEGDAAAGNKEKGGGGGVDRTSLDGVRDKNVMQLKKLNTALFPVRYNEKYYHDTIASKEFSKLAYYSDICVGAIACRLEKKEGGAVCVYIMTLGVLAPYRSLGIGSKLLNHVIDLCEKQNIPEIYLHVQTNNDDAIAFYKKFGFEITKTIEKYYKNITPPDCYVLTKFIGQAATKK

[1] = substrate: COc1ccc2[nH]cc(CCN)c2c1; test: HPLC detection of melatonin, Lineweaver-Burk; format: biochemical, Oryza sativa; conditions: 0.5 mM acetyl-CoA, 100 mM potassium phosphate pH 8.8, 45 °C
[2] = substrate: NCCc1c[nH]c2ccc(O)cc12; test: HPLC detection of N-acetylserotonin, Lineweaver-Burk; format: biochemical, Oryza sativa; conditions: 0.5 mM acetyl-CoA, 100 mM potassium phosphate pH 8.8, 45 °C

## NCCc1ccc(O)c(O)c1 [dopamine]
OsSNAT3 (OsSNAT3-His6)
  SNAT activity with 0.5 mM amine: significantly inhibited by putrescine and dopamine

## NC[C@H](O)c1ccc(O)cc1 [octopamine]
OsSNAT3 (OsSNAT3-His6)
  SNAT activity with 0.5 mM amine: OsSNAT3 activity was strongly inhibited by spermidine and octopamine (Figure 3C)

## NCCCCN [putrescine]
OsSNAT3 (OsSNAT3-His6)
  SNAT activity with 0.5 mM amine: significantly inhibited by putrescine and dopamine

## NCCCCNCCCN [spermidine]
OsSNAT3 (OsSNAT3-His6)
  SNAT activity with 0.5 mM amine: OsSNAT3 activity was strongly inhibited by spermidine and octopamine (Figure 3C)

B1: OsSNAT3 (OsSNAT3-His6) (Oryza sativa Japonica Group) (protein)
chain: T1 sequence (B7F8K4 1-179)
notes: cDNA-derived N-terminus MGAGEG, C-terminus QAATKK
[1]
  Km: 1587 µM
[2]
  Km: 1152 µM
